In patent publication US20240042045A1, “NANOPARTICLES CONTAINING MULTIPLE CLEAVABLE PRODUGS FOR CANCER THERAPY” (The University of Chicago, priority 2020, published 2024):
Counter-ions that a name gives are not always drawn. Like-named read-outs stand apart in the source and are kept apart here.

Tests used:
4T1 cells = assay: In vitro cytotoxicity in 4T1 cells (MTS assay); type: cell-based, murine; details: 48 h
H460 cells = assay: In vitro cytotoxicity in H460 cells (MTS assay); type: cell-based, human
apoptosis/necrosis [1] = assay: Apoptosis/necrosis analysis of cells treated with Carb and/or DTX; type: cell-based; details: 10 μM Carb and/or DTX
Method: Apoptosis/necrosis analysis was also performed on cells treated with 10 μM Carb and/or DTX by flow cytometry.

LL/2 lung cancer cells = assay: Cytotoxicity of Chol-PTX; type: cell-based
lipoproteins = assay: Distribution in lipoproteins after incubation in rat plasma (NaBr gradient ultracentrifugation, LC-MS); details: 37° C., 3 h, Chol-SN38 measured for OxPt/SN38
Text: Lipoproteins were separated based on their densities by NaBr gradient ultracentrifugation.

LDL [2] = assay: Binding kinetics to LDL in rat plasma at 37° C.; details: for binding to LDL: Chol-SN38 measured for Chol-SN38 and OxPt/SN38
CT26 cells = assay: In vitro cytotoxicity in CT26 cells; type: cell-based, murine
Method: (§1) The cell viability was measured by […].

MC38 cells = assay: In vitro cytotoxicity in MC38 cells; type: cell-based, murine
Method: as §1

KPC cells = assay: In vitro cytotoxicity in KPC cells (MTS assay); type: cell-based, murine; details: 48 h
Method: (§2) The cell viability was measured by MTS assay.

LDL [3] = assay: Isothermal titration calorimetry (ITC) binding to LDL
Method: (§3) LDL is the key transporter of cholesterol and cholesterol esters to peripheral cells. It was hypothesized that LDL would strongly bind to Chol-SN38 to enhance its delivery to tumors via LDLR-mediated endocytosis.
Apparent LDL binding affinity of two control particles, OxPt NCP without chol and Chol-SN38 micelle (without the NCP core) was determined to understand which components of the particles bind to LDL.

albumin = albumin (Homo sapiens, UniProt P02768); assay: ITC binding to albumin
albumin, sequence (P02768 25-609, species assumed): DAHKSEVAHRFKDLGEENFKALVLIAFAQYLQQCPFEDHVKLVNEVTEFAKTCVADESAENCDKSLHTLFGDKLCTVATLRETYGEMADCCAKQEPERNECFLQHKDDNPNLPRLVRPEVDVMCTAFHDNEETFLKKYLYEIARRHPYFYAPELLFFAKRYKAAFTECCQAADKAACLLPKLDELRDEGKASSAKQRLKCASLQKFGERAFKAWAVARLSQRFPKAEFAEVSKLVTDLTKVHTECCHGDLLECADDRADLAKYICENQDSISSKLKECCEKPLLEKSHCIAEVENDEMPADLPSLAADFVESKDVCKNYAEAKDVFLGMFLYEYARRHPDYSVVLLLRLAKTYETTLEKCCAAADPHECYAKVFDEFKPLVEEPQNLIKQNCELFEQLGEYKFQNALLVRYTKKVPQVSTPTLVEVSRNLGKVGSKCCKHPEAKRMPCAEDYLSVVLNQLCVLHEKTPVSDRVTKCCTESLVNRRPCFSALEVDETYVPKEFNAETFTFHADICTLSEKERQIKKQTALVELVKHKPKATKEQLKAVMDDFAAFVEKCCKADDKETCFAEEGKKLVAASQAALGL
Text: as §3

Panc02 cells = assay: In vitro cytotoxicity in Panc02 cells (MTS assay); type: cell-based, murine
Method: as §2

CT26 and MC38 cells [4] = assay: In vitro cytotoxicity, values not assigned to one colon cancer cell line
[5] = Dynamic light scattering (DLS) of particles; type: physicochemical; details: DLS of OxPt/GEM-core nanoparticles made with the named Chol-disulfide prodrug
Method: Synthesis and characterization of OxPt/GEM/SN38 core-shell nanoparticle NCP particles with OxPt-bp and gemcitabine monophosphate (GMP) in the core and Chol-SN38 on the shell, referred to as “OxPt/GMP/SN38,” was synthesized in two steps. […] An aqueous solution of Zn(NO3)2 (60 mg, 600 mg/mL) was added to a 5 mL of 0.3M Triton X-100/1.5M 1-hexanol in cyclohexane and stirred vigorously for 5 min. The Zn(NO3)2-containing microemulsion was added dropwise to the OxPt-bp-containing microemulsion and stirred vigorously for 30 min at room temperature. After the addition of 10 mL ethanol, OxPt-bare was obtained by centrifugation at 11,628×g. The resulting pellet was washed twice with THF/ethanol and finally re-dispersed in THF. The loadings of OxPt in the particles were determined by ICP-MS (Agilent 7700x, Agilent Technologies, Santa Clara, California, United States of America) after digestion with nitric acid. The particle size and zeta potential were determined by dynamic light scattering using a Zetasizer (Nano ZS, Malvern, United Kingdom).

CT26 and MC38 cells [6] = assay: cells; details: Mus musculus
apoptosis/necrosis [7] = assay: Apoptosis/necrosis analysis by flow cytometry (Annexin V / PI); type: cell-based; details: for percentage of apoptosis: flow cytometry
Method: Apoptosis/necrosis analysis was also performed on OxPt and/or SN38 treated cells by flow cytometry.

CT26 and MC38 cells [8] = test system: CT26 and MC38 cells
[9] = Conversion of SN38-TMS to SN38 at pH 5.5 and 7.4; type: physicochemical; details: for SN38-TMS converted to SN38: pH=5.5, 37° C.
Method: SN38-TMS was incubated in acidic conditions mimicking endosomes at 37° C. At pH=5.5, 70% SN38-TMS was converted to SN38 in 24 h and 92% […] SN38-TMS was converted to SN38 in 48 h.

[10] = cited from earlier work
[11] = CT26 cells, 48 h, for OxPt/SN38 the OxPt IC50, read-out: IC50
[12] = MC38 cells, 48 h, for OxPt/SN38 the OxPt IC50, read-out: IC50
[13] = Panc02 cells, 48 h, read-out: IC50

`N.N.O=C([O-])C1(C(=O)[O-])CCC1.[Pt+2]` [Carb, carboplatin] gave an IC50 (4T1 cells) of 0.91 µM, an IC50 (H460 cells; 48 h) of 3.9 µM and a percentage of apoptosis (apoptosis/necrosis [1]) of 2.90%.
Compound `CC(=O)O[C@@]12CO[C@@H]1C[C@H](O)[C@@]1(C)C(=O)[C@H](O)C3=C(C)[C@@H](OC(=O)[C@H](OC(=O)OCOC(=O)CCC(=O)O[C@H]4CC[C@@]5(C)C(=CC[C@H]6[C@@H]7CC[C@H]([C@H](C)CCCC(C)C)[C@@]7(C)CC[C@@H]65)C4)[C@@H](NC(=O)OC(C)(C)C)c4ccccc4)C[C@](O)([C@@H](OC(=O)c4ccccc4)[C@H]21)C3(C)C` [Chol-DTX, Cholesterol-Docetaxel] has an IC50 (4T1 cells; Mus musculus) of 15.3 µM and an IC50 (H460 cells; Homo sapiens, NCI-H460, 48 h) of 11.4 µM.
Work on `CC(=O)O[C@H]1C(=O)[C@]2(C)[C@@H](OC(=O)OCOC(=O)CCC(=O)O[C@H]3CC[C@@]4(C)C(=CC[C@H]5[C@@H]6CC[C@H]([C@H](C)CCCC(C)C)[C@@]6(C)CC[C@@H]54)C3)C[C@H]3OC[C@@]3(OC(C)=O)[C@H]2[C@H](OC(=O)c2ccccc2)[C@]2(O)C[C@H](OC(=O)[C@H](O)[C@@H](NC(=O)c3ccccc3)c3ccccc3)C(C)=C1C2(C)C` [Chol-PTX, Cholesterol-Paclitaxel] yielded an IC50 (LL/2 lung cancer cells) of 3.95 µM.
With `CCc1c2c(nc3ccc(OC(=O)OCOC(=O)CCC(=O)O[C@H]4CC[C@@]5(C)C(=CC[C@H]6[C@@H]7CC[C@H]([C@H](C)CCCC(C)C)[C@@]7(C)CC[C@@H]65)C4)cc13)-c1cc3c(c(=O)n1C2)COC(=O)[C@@]3(CC)O[Si](C)(C)C` [Chol-SN38, 7-ethyl-10-(((((cholest-5-en-3-oxy)-4-oxobutanoyl)oxy)methoxy)-carbonyl)oxyl-20-O-trimethylsilyl camptothecin] the “distribution in HDL” value (lipoproteins) was 5%, the “distribution in LDL fraction” value (lipoproteins) was 86% and the “distribution in VLDL” value (lipoproteins) was 9%. For the same compound, the “time to reach equilibrium binding to LDL” value (LDL [2]) was ≤ 1 h, the “binding to LDL” value (LDL [2]) was 74.5±3.6% and the IC50 (CT26 cells; Mus musculus, CT26, 48 h, CT26 cells, 48 h, for OxPt/SN38 the OxPt IC50) was 7.41 ± 1.03 µM. For the same compound, the IC50 (MC38 cells; Mus musculus, MC-38, 48 h, MC38 cells, 48 h, for OxPt/SN38 the OxPt IC50) was 10.2 ± 1.99 µM, the IC50 (KPC cells; Mus musculus) was 3.18 ± 1.01 µM and the “Ka to LDL relative to binding affinity to albumin” value (LDL [3]) was > 2000 times. The “binding constant (Ka) to LDL” value (LDL [3]; ITC, apparent Ka for the particle) was “(4.97±0.24)×10^5 M^−1”, the “Binding affinity Ka” value (LDL [3]; protein LDL) was 49.7 ± 2.43 10^4 M^−1 and the Kd (albumin) was 4440 µM. For the same compound, the IC50 (Panc02 cells; Mus musculus, Panc02, 48 h) was 14.6 ± 4.87 µM and the “cytotoxicity relative to irinotecan” value (CT26 and MC38 cells [4]) was 5-10 times.
In the case of `CC[C@@]1(OC(=O)OCCSSCCOC(=O)O[C@H]2CC[C@@]3(C)C(=CC[C@H]4[C@@H]5CC[C@H]([C@H](C)CCCC(C)C)[C@@]5(C)CC[C@@H]43)C2)C(=O)OCc2c1cc1n(c2=O)Cc2cc3ccccc3nc2-1` [Chol-SS-CPT], the PDI [5] is reported as 0.434 and the “Z-Average (nm)” value [5] is reported as 263.2 nm.
For `CCc1c2c(nc3ccc(OC(=O)OC(C)(C)C)cc13)-c1cc3c(c(=O)n1C2)COC(=O)[C@@]3(CC)OC(=O)OCCSSCCOC(=O)O[C@H]1CC[C@@]2(C)C(=CC[C@H]3[C@@H]4CC[C@H]([C@H](C)CCCC(C)C)[C@@]4(C)CC[C@@H]32)C1` [Chol-SS-SN38-Boc], the PDI [5] was 0.211 and the “Z-Average (nm)” value [5] was 96.79 nm.
For `CCc1c2c(nc3ccc(OC(=O)OCCSSCCOC(=O)O[C@H]4CC[C@@]5(C)C(=CC[C@H]6[C@@H]7CC[C@H]([C@H](C)CCCC(C)C)[C@@]7(C)CC[C@@H]65)C4)cc13)-c1cc3c(c(=O)n1C2)COC(=O)[C@@]3(CC)O[Si](C)(C)C` [Chol-SS-SN38], the PDI [5] was 0.38 and the “Z-Average (nm)” value [5] was 172.3 nm.
For `CC(=O)O[C@@]12CO[C@@H]1C[C@H](O)[C@@]1(C)C(=O)[C@H](O)C3=C(C)[C@@H](OC(=O)[C@H](O)[C@@H](NC(=O)OC(C)(C)C)c4ccccc4)C[C@@](O)([C@@H](OC(=O)c4ccccc4)[C@H]21)C3(C)C` [DTX, docetaxel], the IC50 (4T1 cells; Mus musculus) was 4.7 µM, the IC50 (H460 cells; Homo sapiens, NCI-H460, 48 h) was 3.69 µM and the percentage of apoptosis (apoptosis/necrosis [1]) was 3.30%.
Work on `Nc1ccn([C@@H]2O[C@H](CO)[C@@H](O)C2(F)F)c(=O)n1` [GEM, gemcitabine] yielded an IC50 (KPC cells; Mus musculus, KPC cells, read-out: IC50) of 0.67 ± 0.18 µM and an IC50 (Panc02 cells; Mus musculus, Panc02 cells, 48 h, read-out: IC50) of 0.11 ± 0.03 µM.
Work on `CCc1c2c(nc3ccc(OC(=O)N4CCC(N5CCCCC5)CC4)cc13)-c1cc3c(c(=O)n1C2)COC(=O)[C@]3(O)CC` [Irinotecan, irinotecan] yielded an IC50 (CT26 cells; Mus musculus, CT26, 48 h, read-out: IC50) of 79.4 ± 6.94 µM, an IC50 (MC38 cells; Mus musculus, MC-38, 48 h, read-out: IC50) of 88.4 ± 7.48 µM and an IC50 (CT26 and MC38 cells [6]) of ~80 µM.
Compound `O=C1[O][Pt]2([NH][C@@H]3CCCC[C@H]3[NH]2)[O]C1=O` [OxPt, oxaliplatin] has an IC50 (CT26 cells; [11]) of 9.11 ± 0.72 µM, an IC50 (MC38 cells; [12]) of 11.4 ± 1.68 µM and an IC50 (KPC cells; KPC cells, read-out: IC50) of 5.94 ± 1.73 µM. The “early apoptotic Annexin V+/PI− cells” value (apoptosis/necrosis [7]) was 8.0±0.6%, the percentage of apoptosis (apoptosis/necrosis [7]) was 12.1% and the IC50 (Panc02 cells; [13]) was 14 ± 4.88 µM.
With `CCc1c2c(nc3ccc(O)cc13)-c1cc3c(c(=O)n1C2)COC(=O)C3(CC)OC(=O)OC(C)(C)C` (stereo not shown) [SN38-Boc, 20-O-Boc-SN38] the cytotoxicity (CT26 and MC38 cells [8]; concentrations up to 300 μM) was “no cytotoxicity”.
With `CCc1c2c(nc3ccc(O)cc13)-c1cc3c(c(=O)n1C2)COC(=O)[C@@]3(CC)O[Si](C)(C)C` [SN38-TMS, 20-O-Trimethylsilyl SN38] the “SN38 released from SN38-TMS” value ([9]; pH 7.4, 24 h) was 26%, the “SN38 released from SN38-TMS” value ([9]; pH 7.4, 48 h) was 63% and the “SN38-TMS converted to SN38” value ([9]; 24 h) was 70%. The “SN38-TMS converted to SN38” value ([9]; 48 h) was 92%.
With `CCc1c2c(nc3ccc(O)cc13)-c1cc3c(c(=O)n1C2)COC(=O)[C@]3(O)CC` [SN38] the “distribution in HDL” value (lipoproteins) was 14%, the “distribution in LDL fraction” value (lipoproteins) was 17% and the “distribution in albumin fraction” value (lipoproteins) was 69%. For the same compound, the “binding to LDL” value (LDL [2]) was 17.1±1.5%, the IC50 (CT26 cells; [11]) was 0.22 ± 0.05 µM and the IC50 (MC38 cells; [12]) was 0.24 ± 0.08 µM. For the same compound, the IC50 (KPC cells; KPC cells, read-out: IC50) was 0.3 ± 0.09 µM, the “early apoptotic Annexin V+/PI− cells” value (apoptosis/necrosis [7]) was 25.7±1.5% and the percentage of apoptosis (apoptosis/necrosis [7]) was 34.8%. For the same compound, the “IC50 of SN38” value (CT26 and MC38 cells [8]; cell line not stated) was 0.086 µg/mL, the IC50 (Panc02 cells; [13]) was 0.17 ± 0.12 µM and the “Log P” value [10] was 3.37.
In the case of `CC(C)CCC[C@@H](C)[C@H]1CC[C@H]2[C@@H]3CC=C4C[C@@H](O)CC[C@]4(C)[C@H]3CC[C@]12C` [cholesterol], the “Log P” value [10] is given as 7.02.
In the case of `CCc1c2c(nc3ccc(OC(=O)N4CCC(N5CCCCC5)CC4)cc13)-c1cc3c(c(=O)n1C2)COC(=O)[C@]3(O)CC` [irinotecan hydrochloride], the “Log P” value [10] is given as −0.45.
gemcitabine monophosphate [GMP] showed an IC50 (KPC cells; KPC cells, read-out: IC50) of 0.3 ± 0.07 µM and an IC50 (Panc02 cells; [13]) of 0.06 ± 0.02 µM.
